Data published in PubChem BioAssay (NCI).
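In this assay, cells in 96-well plates receive the compound at five concentrations for 48 hours. Endpoints are linearly interpolated between the surrounding concentrations. Abbreviation: GI50, concentration required for 50% inhibition of growth. TGI denotes the concentration required for complete inhibition of growth.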

What was measured:
Experiment in all cases: inhibition of tumour cell growth, NCI panel, 48 h
786-0 renal = tested on: 786-0 renal
A498 renal = tested on: A498 renal
A549 NSCLC = tested on: A549 NSCLC
ACHN renal = tested on: ACHN renal
BT-549 breast = tested on: BT-549 breast
CAKI-1 renal = tested on: CAKI-1 renal
CCRF-CEM leukemia = tested on: CCRF-CEM leukemia
COLO 205 colon = tested on: COLO 205 colon
DU-145 prostate = tested on: DU-145 prostate
EKVX NSCLC = tested on: EKVX NSCLC
HCC-2998 colon = tested on: HCC-2998 colon
HCT-116 colon = tested on: HCT-116 colon
HCT-15 colon = tested on: HCT-15 colon
HL-60(TB) leukemia = tested on: HL-60(TB) leukemia
HOP-62 NSCLC = tested on: HOP-62 NSCLC
HOP-92 NSCLC = tested on: HOP-92 NSCLC
HS 578T breast = tested on: HS 578T breast
HT29 colon = tested on: HT29 colon
IGROV1 ovarian = tested on: IGROV1 ovarian
K-562 leukemia = tested on: K-562 leukemia
KM12 colon = tested on: KM12 colon
LOX IMVI melanoma = tested on: LOX IMVI melanoma
M14 melanoma = tested on: M14 melanoma
MALME-3M melanoma = tested on: MALME-3M melanoma
MCF7 breast = tested on: MCF7 breast
MDA-MB-231 breast = tested on: MDA-MB-231 breast
MDA-MB-435 = tested on: MDA-MB-435
MOLT-4 leukemia = tested on: MOLT-4 leukemia
NCI-H226 lung = tested on: NCI-H226 lung
NCI-H460 lung = tested on: NCI-H460 lung
NCI-H522 lung = tested on: NCI-H522 lung
NCI/ADR-RES ovarian = tested on: NCI/ADR-RES ovarian
OVCAR-3 ovarian = tested on: OVCAR-3 ovarian
OVCAR-4 ovarian = tested on: OVCAR-4 ovarian
OVCAR-5 ovarian = tested on: OVCAR-5 ovarian
OVCAR-8 ovarian = tested on: OVCAR-8 ovarian
PC-3 prostate = tested on: PC-3 prostate
RPMI-8226 leukemia = tested on: RPMI-8226 leukemia
RXF 393 renal = tested on: RXF 393 renal
SF-268 CNS = tested on: SF-268 CNS
SF-295 CNS = tested on: SF-295 CNS
SF-539 CNS = tested on: SF-539 CNS
SK-MEL-2 melanoma = tested on: SK-MEL-2 melanoma
SK-MEL-28 melanoma = tested on: SK-MEL-28 melanoma
SK-MEL-5 melanoma = tested on: SK-MEL-5 melanoma
SK-OV-3 ovarian = tested on: SK-OV-3 ovarian
SN12C renal = tested on: SN12C renal
SNB-19 CNS = tested on: SNB-19 CNS
SNB-75 CNS = tested on: SNB-75 CNS
SR leukemia = tested on: SR leukemia
SW-620 colon = tested on: SW-620 colon
T-47D breast = tested on: T-47D breast
TK-10 renal = tested on: TK-10 renal
U251 CNS = tested on: U251 CNS
UACC-257 melanoma = tested on: UACC-257 melanoma
UACC-62 melanoma = tested on: UACC-62 melanoma
UO-31 renal = tested on: UO-31 renal

SMILES: C[C@@H](Nc1c(C#N)cnc2ccc(-c3cnc(N)nc3)cc12)c1ccccc1
- GI50 (786-0 renal): 1.6 µM
- TGI (786-0 renal): 36.4 µM
- GI50 (A498 renal): 0.301 µM
- TGI (A498 renal): 3.48 µM
- GI50 (A549 NSCLC): 1.55 µM
- TGI (A549 NSCLC): 13.7 µM
- GI50 (ACHN renal): 0.942 µM
- TGI (ACHN renal): 40.9 µM
- GI50 (BT-549 breast): 1.05 µM
- TGI (BT-549 breast): 6.34 µM
- GI50 (CAKI-1 renal): 0.781 µM
- TGI (CAKI-1 renal): 11.6 µM
- GI50 (CCRF-CEM leukemia): 1.89 µM
- TGI (CCRF-CEM leukemia): > 100 µM
- GI50 (COLO 205 colon): 3.06 µM
- TGI (COLO 205 colon): 13.4 µM
- GI50 (DU-145 prostate): 1.91 µM
- TGI (DU-145 prostate): > 100 µM
- GI50 (EKVX NSCLC): 0.552 µM
- TGI (EKVX NSCLC): 5 µM
- GI50 (HCC-2998 colon): 2.78 µM
- TGI (HCC-2998 colon): > 100 µM
- GI50 (HCT-116 colon): 2.46 µM
- TGI (HCT-116 colon): 11.1 µM
- GI50 (HCT-15 colon): 1.74 µM
- TGI (HCT-15 colon): 22.6 µM
- GI50 (HL-60(TB) leukemia): 2.07 µM
- TGI (HL-60(TB) leukemia): > 100 µM
- GI50 (HOP-62 NSCLC): 1.98 µM
- TGI (HOP-62 NSCLC): 27.8 µM
- GI50 (HOP-92 NSCLC): 0.185 µM
- TGI (HOP-92 NSCLC): 1.11 µM
- GI50 (HS 578T breast): 1.19 µM
- TGI (HS 578T breast): 6.82 µM
- GI50 (HT29 colon): 2.43 µM
- TGI (HT29 colon): > 100 µM
- GI50 (IGROV1 ovarian): 0.454 µM
- TGI (IGROV1 ovarian): 3.87 µM
- GI50 (K-562 leukemia): 2.49 µM
- TGI (K-562 leukemia): > 100 µM
- GI50 (KM12 colon): 2.67 µM
- TGI (KM12 colon): > 100 µM
- GI50 (LOX IMVI melanoma): 1.64 µM
- TGI (LOX IMVI melanoma): 11 µM
- GI50 (M14 melanoma): 2.8 µM
- TGI (M14 melanoma): 16.7 µM
- GI50 (MALME-3M melanoma): 1.59 µM
- TGI (MALME-3M melanoma): 7.83 µM
- GI50 (MCF7 breast): 1.15 µM
- TGI (MCF7 breast): 17.3 µM
- GI50 (MDA-MB-231 breast): 1.82 µM
- TGI (MDA-MB-231 breast): 50.4 µM
- GI50 (MDA-MB-435): 2.61 µM
- TGI (MDA-MB-435): > 100 µM
- GI50 (MOLT-4 leukemia): 1.58 µM
- TGI (MOLT-4 leukemia): > 100 µM
- GI50 (NCI-H226 lung): 1.81 µM
- TGI (NCI-H226 lung): 12.7 µM
- GI50 (NCI-H460 lung): 1.73 µM
- TGI (NCI-H460 lung): 44.6 µM
- GI50 (NCI-H522 lung): 1.73 µM
- TGI (NCI-H522 lung): 10.6 µM
- GI50 (NCI/ADR-RES ovarian): 2.87 µM
- TGI (NCI/ADR-RES ovarian): 18.1 µM
- GI50 (OVCAR-3 ovarian): 2.74 µM
- TGI (OVCAR-3 ovarian): > 100 µM
- GI50 (OVCAR-4 ovarian): 1.22 µM
- TGI (OVCAR-4 ovarian): 7.87 µM
- GI50 (OVCAR-5 ovarian): 1.62 µM
- TGI (OVCAR-5 ovarian): 83.8 µM
- GI50 (OVCAR-8 ovarian): 2.5 µM
- TGI (OVCAR-8 ovarian): 24 µM
- GI50 (PC-3 prostate): 1.54 µM
- TGI (PC-3 prostate): 10.1 µM
- GI50 (RPMI-8226 leukemia): 0.588 µM
- TGI (RPMI-8226 leukemia): 4.92 µM
- GI50 (RXF 393 renal): 0.886 µM
- TGI (RXF 393 renal): 4.59 µM
- GI50 (SF-268 CNS): 3.22 µM
- TGI (SF-268 CNS): > 100 µM
- GI50 (SF-295 CNS): 1.38 µM
- TGI (SF-295 CNS): 7.45 µM
- GI50 (SF-539 CNS): 2.21 µM
- TGI (SF-539 CNS): 12.8 µM
- GI50 (SK-MEL-2 melanoma): 1.76 µM
- TGI (SK-MEL-2 melanoma): 5.54 µM
- GI50 (SK-MEL-28 melanoma): 2.95 µM
- TGI (SK-MEL-28 melanoma): 26.9 µM
- GI50 (SK-MEL-5 melanoma): 1.84 µM
- TGI (SK-MEL-5 melanoma): 3.99 µM
- GI50 (SK-OV-3 ovarian): 2.16 µM
- TGI (SK-OV-3 ovarian): 7.38 µM
- GI50 (SN12C renal): 1.14 µM
- TGI (SN12C renal): 24.2 µM
- GI50 (SNB-19 CNS): 2.23 µM
- TGI (SNB-19 CNS): 60.6 µM
- GI50 (SNB-75 CNS): 1.58 µM
- TGI (SNB-75 CNS): 37.5 µM
- GI50 (SR leukemia): 2.38 µM
- TGI (SR leukemia): > 100 µM
- GI50 (SW-620 colon): 3.73 µM
- TGI (SW-620 colon): > 100 µM
- GI50 (T-47D breast): 0.907 µM
- TGI (T-47D breast): 7.86 µM
- GI50 (TK-10 renal): 0.289 µM
- TGI (TK-10 renal): 3.45 µM
- GI50 (U251 CNS): 2.13 µM
- TGI (U251 CNS): 77.5 µM
- GI50 (UACC-257 melanoma): 2.79 µM
- TGI (UACC-257 melanoma): 17.1 µM
- GI50 (UACC-62 melanoma): 2.24 µM
- TGI (UACC-62 melanoma): 10 µM
- GI50 (UO-31 renal): 0.31 µM
- TGI (UO-31 renal): 8.9 µM
